ChEMBL document CHEMBL3390836, “Mannich- and LedererManasse-based analogues of the natural product S-(+)-curcuphenol as cancer proliferation and migration inhibitors” (Medchemcomm, 2012)

Assays:
[1] = tested on: MDA-MB-468; assay: Cytotoxicity against human MDA-MB-468 cells assessed as cell growth at 10 uM after 48 hrs by SRB assay relative to control; type: functional; settings: MDA-MB-468, 48 h, read-out: Activity
[2] = tested on: T47D; assay: Cytotoxicity against human T47D cells assessed as cell growth at 10 uM after 48 hrs by SRB assay relative to control; type: functional; settings: read-out: Activity
[3] = Cytotoxicity against human Hs 578T cells assessed as cell growth at 10 uM after 48 hrs by SRB assay relative to control; type: functional; settings: read-out: Activity
[4] = tested on: MDA-MB-231; assay: Cytotoxicity against human MDA-MB-231 cells assessed as cell growth at 10 uM after 48 hrs by SRB assay relative to control; type: functional; settings: MDA-MB-231, 48 h, read-out: Activity
[5] = tested on: TK-10; assay: Cytotoxicity against human TK10 cells assessed as cell growth at 10 uM after 48 hrs by SRB assay relative to control; type: functional; settings: TK-10, 48 h, read-out: Activity
[6] = tested on: SN12C; assay: Cytotoxicity against human SN12C cells assessed as cell growth at 10 uM after 48 hrs by SRB assay relative to control; type: functional; settings: read-out: Activity
[7] = tested on: RXF 393; assay: Cytotoxicity against human RXF393 cells assessed as cell growth at 10 uM after 48 hrs by SRB assay relative to control; type: functional; settings: RXF 393, 48 h, read-out: Activity
[8] = tested on: CAKI-1; assay: Cytotoxicity against human Caki1 cells assessed as cell growth at 10 uM after 48 hrs by SRB assay relative to control; type: functional; settings: CAKI-1, 48 h, read-out: Activity
[9] = tested on: 786-0; assay: Cytotoxicity against human 786-0 cells assessed as cell growth at 10 uM after 48 hrs by SRB assay relative to control; type: functional; settings: 786-0, 48 h, read-out: Activity
[10] = tested on: A498; assay: Cytotoxicity against human A498 cells assessed as cell growth at 10 uM after 48 hrs by SRB assay relative to control; type: functional; settings: A498, 48 h, read-out: Activity
[11] = Cytotoxicity against human SKOV3 cells assessed as cell growth at 10 uM after 48 hrs by SRB assay relative to control; type: functional; settings: SK-OV-3, 48 h, read-out: Activity
[12] = Cytotoxicity against human NCI-ADR-RES cells assessed as cell growth at 10 uM after 48 hrs by SRB assay relative to control; type: functional; settings: read-out: Activity
[13] = Cytotoxicity against human OVCAR4 cells assessed as cell growth at 10 uM after 48 hrs by SRB assay relative to control; type: functional; settings: OVCAR-4, 48 h, read-out: Activity
[14] = Cytotoxicity against human OVCAR3 cells assessed as cell growth at 10 uM after 48 hrs by SRB assay relative to control; type: functional; settings: OVCAR-3, 48 h, read-out: Activity
[15] = Cytotoxicity against human UACC62 cells assessed as cell growth at 10 uM after 48 hrs by SRB assay relative to control; type: functional; settings: UACC-62, 48 h, read-out: Activity
[16] = tested on: SK-MEL-5; assay: Cytotoxicity against human SK-MEL-5 cells assessed as cell growth at 10 uM after 48 hrs by SRB assay relative to control; type: functional; settings: SK-MEL-5, 48 h, read-out: Activity
[17] = tested on: SK-MEL-28; assay: Cytotoxicity against human SK-MEL-28 cells assessed as cell growth at 10 uM after 48 hrs by SRB assay relative to control; type: functional; settings: SK-MEL-28, 48 h, read-out: Activity
[18] = tested on: SK-MEL-2; assay: Cytotoxicity against human SK-MEL-2 cells assessed as cell growth at 10 uM after 48 hrs by SRB assay relative to control; type: functional; settings: SK-MEL-2, 48 h, read-out: Activity
[19] = tested on: MDA-MB-435; assay: Cytotoxicity against human MDA-MB-435 cells assessed as cell growth at 10 uM after 48 hrs by SRB assay relative to control; type: functional; settings: MDA-MB-435, 48 h, read-out: Activity
[20] = tested on: U-251; assay: Cytotoxicity against human U251 cells assessed as cell growth at 10 uM after 48 hrs by SRB assay relative to control; type: functional; settings: U-251, 48 h, read-out: Activity
[21] = tested on: LOX IMVI; assay: Cytotoxicity against human LOXIMVI cells assessed as cell growth at 10 uM after 48 hrs by SRB assay relative to control; type: functional; settings: read-out: Activity
[22] = tested on: SNB-75; assay: Cytotoxicity against human SNB75 cells assessed as cell growth at 10 uM after 48 hrs by SRB assay relative to control; type: functional; settings: SNB-75, 48 h, read-out: Activity
[23] = tested on: SNB-19; assay: Cytotoxicity against human SNB19 cells assessed as cell growth at 10 uM after 48 hrs by SRB assay relative to control; type: functional; settings: SNB-19, 48 h, read-out: Activity
[24] = tested on: SW-620; assay: Cytotoxicity against human SW620 cells assessed as cell growth at 10 uM after 48 hrs by SRB assay relative to control; type: functional; settings: SW-620, 48 h, read-out: Activity
[25] = Cytotoxicity against human HCT15 cells assessed as cell growth at 10 uM after 48 hrs by SRB assay relative to control; type: functional; settings: HCT-15, 48 h, read-out: Activity
[26] = tested on: HCC 2998; assay: Cytotoxicity against human HCC2998 cells assessed as cell growth at 10 uM after 48 hrs by SRB assay relative to control; type: functional; settings: HCC 2998, 48 h, read-out: Activity
[27] = Cytotoxicity against human HCT116 cells assessed as cell growth at 10 uM after 48 hrs by SRB assay relative to control; type: functional; settings: HCT-116, 48 h, read-out: Activity
[28] = tested on: COLO 205; assay: Cytotoxicity against human COLO205 cells assessed as cell growth at 10 uM after 48 hrs by SRB assay relative to control; type: functional; settings: COLO 205, 48 h, read-out: Activity
[29] = tested on: NCI-H322M; assay: Cytotoxicity against human NCI-H322M cells assessed as cell growth at 10 uM after 48 hrs by SRB assay relative to control; type: functional; settings: read-out: Activity
[30] = tested on: NCI-H460; assay: Cytotoxicity against human NCI-H460 cells assessed as cell growth at 10 uM after 48 hrs by SRB assay relative to control; type: functional; settings: NCI-H460, 48 h, read-out: Activity
[31] = tested on: NCI-H226; assay: Cytotoxicity against human NCI-H226 cells assessed as cell growth at 10 uM after 48 hrs by SRB assay relative to control; type: functional; settings: NCI-H226, 48 h, read-out: Activity
[32] = tested on: HOP-62; assay: Cytotoxicity against human HOP62 cells assessed as cell growth at 10 uM after 48 hrs by SRB assay relative to control; type: functional; settings: HOP-62, 48 h, read-out: Activity
[33] = tested on: K562; assay: Cytotoxicity against human K562 cells assessed as cell growth at 10 uM after 48 hrs by SRB assay relative to control; type: functional; settings: K562, 48 h, read-out: Activity
[34] = tested on: HL-60(TB); assay: Cytotoxicity against human HL-60(TB) cells assessed as cell growth at 10 uM after 48 hrs by SRB assay relative to control; type: functional; settings: HL-60, 48 h, read-out: Activity
[35] = tested on: MDA-MB-231; assay: Growth inhibition of human MDA-MB-231 cells after 72 hrs by MTT assay; type: functional, cell-based; settings: MDA-MB-231, 72 h

In the case of COc1ccc(CCN2COc3c([C@@H](C)CCC=C(C)C)ccc(C)c3C2)cc1OC, the growth at 10 µM [1] is reported as -70%, the growth at 10 µM [2] is reported as -64% and the growth at 10 µM [3] is reported as 21%. It also gave a growth at 10 µM [4] of -3%, a growth at 10 µM [5] of -26% and a growth at 10 µM [6] of 15%. For the same compound, the growth at 10 µM [7] was -35%, the growth at 10 µM [8] was 8% and the growth at 10 µM [9] was -59%. It also gave a growth at 10 µM [10] of 7%, a growth at 10 µM [11] of 59% and a growth at 10 µM [12] of -2%. It also gave a growth at 10 µM [13] of 11%, a growth at 10 µM [14] of 16% and a growth at 10 µM [15] of 19%. The growth at 10 µM [16] was -96%, the growth at 10 µM [17] was -44% and the growth at 10 µM [18] was -68%. The growth at 10 µM [19] was 3%, the growth at 10 µM [20] was -47% and the growth at 10 µM [21] was -65%. The growth at 10 µM [22] was 61%, the growth at 10 µM [23] was 67% and the growth at 10 µM [24] was -59%. The growth at 10 µM [25] was 2%, the growth at 10 µM [26] was -99% and the growth at 10 µM [27] was -43%. The growth at 10 µM [28] was -99%, the growth at 10 µM [29] was 5% and the growth at 10 µM [30] was -58%. The growth at 10 µM [31] was 47%, the growth at 10 µM [32] was -76% and the growth at 10 µM [33] was 13.1%. It also gave a growth at 10 µM [34] of 18% and an IC50 [35] of 16.3 µM.
For CC(C)=CCC[C@H](C)c1ccc(C)c2c1OCN(CC1CCNCC1)C2, the growth at 10 µM [1] was 7.48%, the growth at 10 µM [2] was -94.4% and the growth at 10 µM [3] was 64.3%. The growth at 10 µM [4] was 64%, the growth at 10 µM [5] was 75% and the growth at 10 µM [6] was 47%. It also gave a growth at 10 µM [7] of 55.2%, a growth at 10 µM [8] of 80.2% and a growth at 10 µM [9] of -60.1%. It also gave a growth at 10 µM [10] of 64%, a growth at 10 µM [11] of 87% and a growth at 10 µM [12] of 83.5%. The growth at 10 µM [13] was 86%, the growth at 10 µM [14] was 77.2% and the growth at 10 µM [15] was 63.5%. The growth at 10 µM [16] was 30%, the growth at 10 µM [17] was 86% and the growth at 10 µM [18] was 95%. For the same compound, the growth at 10 µM [19] was 14.7%, the growth at 10 µM [20] was -13% and the growth at 10 µM [21] was -70.5%. It also gave a growth at 10 µM [22] of 62%, a growth at 10 µM [23] of 73% and a growth at 10 µM [24] of 28%. The growth at 10 µM [25] was 39.8%, the growth at 10 µM [26] was -82.1% and the growth at 10 µM [27] was -37.2%. For the same compound, the growth at 10 µM [28] was 75.9%, the growth at 10 µM [29] was 98% and the growth at 10 µM [30] was 24.6%. It also gave a growth at 10 µM [31] of 94%, a growth at 10 µM [32] of 80% and a growth at 10 µM [33] of 0.57%. It also gave a growth at 10 µM [34] of 13.8% and an IC50 [35] of 14.9 µM.
